# In US10143681B2, “Factor XIa inhibitors” (MERCK SHARP & DOHME CORP., priority 2016, dated 2018):
# What was measured:
# [1] = Rat Pharmacokinetic Screening IV/PO; type: in vivo; details: male; for clearance: plasma clearance, IV administration; for MRT / bioavailability: plasma; for MRT: mean residence time; for bioavailability: oral bioavailability, oral vs. IV dosing
# Method: Plasma pharmacokinetic parameters for clearance (Cl), volume of distribution, mean residence time (MRT) and oral bioavailability (% F) were determined in rats from oral administration and IV administration studies. 4 male rats, typically weighing 225-260 gram, were fasted overnight prior to dosing. Compounds were prepared for oral and IV dosing by addition to a vehicle, depending on the dose used. For a typical preparation, 1 mg per mL (IV) or 1.5 mg per mL (oral) of test compound was added to vehicle comprised of 20% dimethyl sulfoxide (DMSO), 60% polyethylene glycol 400 (PEG400) and 20% water. IV formulation was administered to 2 rats via pre-cannulated jugular vein, and oral dosing was administered to 2 rats via oral gavage. Blood was collected by pre-cannulated artery, typically at predose, 2, 8, 15, 30 min, 1, 2, 4, 6, and 8 hr postdose for IV, and at predose, 15, 30 min, 1, 2, 4, 6, 8 hr for oral dosing. Samples were collected in K2EDTA tubes, stored on ice, and centrifuged. Plasma was transferred to a micro titer plate and stored at −70° C. until analysis. Plasma samples were extracted using protein precipitation and analyzed by liquid chromatography separation followed by mass spec detection (LC-MS/MS), using a standard curve for each compound. Plasma pharmacokinetic parameters were calculated for IV and oral dosing data by non-compartmental methods. Oral bioavailability was determined as the ratio of the dose-normalized plasma area under the curve (AUC) following oral dosing vs. IV dosing.
# [2] = molecular target: human Factor XIa (Homo sapiens (Human), UniProt P03951); test: Factor XIa Assay; type: biochemical; details: human Factor XIa 0.04 nM, 30 min pre-incubation at 25° C., substrate GPR-AFC; read-out: FXIa IC50
# Outline: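 IC50 values were obtained from four-parameter log(inhibitor)-response fits of % inhibition, then converted to Ki using Cheng-Prusoff. GPR-AFC hydrolysis was read at 400/505 nm after 60 min at 25 °C.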
# [3] = test system: Human plasma (intrinsic coagulation cascade); test: Activated Partial Thromboplastin Time (aPTT) Assay; details: concentration that causes a 50% (1.5×) increase of clot time over vehicle
# Outline: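 Inhibitors spiked into pooled citrated normal-donor human plasma (aPTT 28-40 seconds), run on automated coagulation analyzer: ellagic acid activation of Factor XII, then clot time after recalcification. Reported as concentration giving 50% (1.5×) prolongation over vehicle clot time.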
# [4] = molecular target: Human plasma kallikrein (Homo sapiens (Human), UniProt P03952); test: Kallikrein Assay; type: biochemical; details: purified Human plasma kallikrein 0.5 nM, substrate Acetyl-K-P-R-AFC; read-out: P. KLK IC50
# Outline: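 Purified human plasma kallikrein (0.5 nM final) with Acetyl-K-P-R-AFC substrate ([…]) in pH 7.4 HEPES/NaCl/CaCl2/PEG buffer, room temperature or 37 °C; fluorescence rise read at 405/510 nm under linear conditions after enzyme–inhibitor equilibration. IC50 from four-parameter logistic fit; Ki via Cheng–Prusoff.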
# Sequence of Human plasma kallikrein (P03952 391-638): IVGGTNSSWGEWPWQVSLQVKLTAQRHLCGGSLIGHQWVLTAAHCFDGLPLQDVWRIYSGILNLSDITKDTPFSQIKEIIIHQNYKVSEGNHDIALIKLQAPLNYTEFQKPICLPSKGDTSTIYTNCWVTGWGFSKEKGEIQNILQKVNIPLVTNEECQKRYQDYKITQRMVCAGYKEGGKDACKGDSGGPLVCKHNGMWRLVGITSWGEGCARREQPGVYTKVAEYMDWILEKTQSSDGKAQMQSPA
# Sequence of Human plasma kallikrein (P03952 20-390 partner): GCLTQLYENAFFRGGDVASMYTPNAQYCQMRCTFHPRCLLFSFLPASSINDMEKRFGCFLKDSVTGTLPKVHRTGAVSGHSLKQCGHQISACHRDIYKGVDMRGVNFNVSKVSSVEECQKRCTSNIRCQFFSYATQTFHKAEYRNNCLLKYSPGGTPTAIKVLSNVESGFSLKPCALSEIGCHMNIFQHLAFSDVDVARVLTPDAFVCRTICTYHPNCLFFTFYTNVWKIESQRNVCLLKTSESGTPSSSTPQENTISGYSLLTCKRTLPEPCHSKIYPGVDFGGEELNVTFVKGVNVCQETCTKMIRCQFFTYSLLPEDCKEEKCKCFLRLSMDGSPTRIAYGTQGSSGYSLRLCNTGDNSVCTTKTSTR
# Sequence of human Factor XIa (P03951 388-625): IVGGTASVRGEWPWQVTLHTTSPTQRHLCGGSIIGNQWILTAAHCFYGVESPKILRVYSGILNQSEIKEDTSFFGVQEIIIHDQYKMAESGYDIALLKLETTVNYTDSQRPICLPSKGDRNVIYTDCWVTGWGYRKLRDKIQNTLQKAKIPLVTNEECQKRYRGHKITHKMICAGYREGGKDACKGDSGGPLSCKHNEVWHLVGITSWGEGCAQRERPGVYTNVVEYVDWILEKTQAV
# Sequence of human Factor XIa (P03951 19-387 partner): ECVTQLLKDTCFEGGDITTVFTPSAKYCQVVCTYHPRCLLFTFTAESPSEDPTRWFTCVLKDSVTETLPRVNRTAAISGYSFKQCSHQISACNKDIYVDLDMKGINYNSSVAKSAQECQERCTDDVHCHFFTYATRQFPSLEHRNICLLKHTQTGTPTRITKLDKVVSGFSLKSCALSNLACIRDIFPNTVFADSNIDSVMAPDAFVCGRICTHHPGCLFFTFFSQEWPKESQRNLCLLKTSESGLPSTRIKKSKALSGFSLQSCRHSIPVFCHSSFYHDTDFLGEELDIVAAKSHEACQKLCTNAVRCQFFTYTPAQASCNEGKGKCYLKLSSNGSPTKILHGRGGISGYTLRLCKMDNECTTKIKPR
Compound,clearance [1] [mL/min/kg],MRT [1] [h],bioavailability [1] [%],IC50 [2] [nM],aPTT (1.5x) [3] [µM],IC50 [4] [nM]
"C[C@H]1C[C@@H]1C[C@@H](C(=O)Nc1ccc(C(=O)O)cc1)c1ccc(-c2c(OC(F)F)ccc(Cl)c2F)c[n+]1[O-] (single isomer, unassigned) [Example 55]",4.3,2.6,63,0.38,0.53,
"O=C(O)c1ccc(NC(=O)C(CC2CC2(F)F)c2ccc(-c3c(C(F)F)ccc(Cl)c3F)c[n+]2[O-])cc1 (single isomer, unassigned) [Example 76, 2-(1-((4-carboxyphenyl)amino)-3-(2,2-difluorocyclopropyl)-1-oxopropan-2-yl)-5-(3-chloro-6-(difluoromethyl)-2-fluorophenyl)pyridine 1-oxide]",12.1,2.3,70,,0.72,14.5
"O=C(O)c1ccc(NC(=O)[C@H](CC2CC2)c2ccc(-c3c(OC(F)F)ccc(Cl)c3F)c[n+]2[O-])cc1 (single isomer, unassigned) [Example 2]",5,2.5,56,,1.16,79
"O=C(O)c1ccc(NC(=O)[C@H](CC2CCC2)c2ccc(-c3c(C(F)F)ccc(Cl)c3F)c[n+]2[O-])cc1 (mixture of isomers) [Example 4, (S)- and (R)-2-(1-((4-Carboxyphenyl)amino)-3-cyclobutyl-1-oxopropan-2-yl)-5-(3-chloro-6-(difluoromethyl)-2-fluorophenyl)pyridine 1-oxide]",5.1,2.5,34,0.36,,4.7
"CC1CC1C[C@@H](C(=O)Nc1ccc(C(=O)O)cc1)c1ccc(-c2c(C(F)F)ccc(Cl)c2F)c[n+]1[O-] (single isomer, unassigned) [Example 62]",,,,0.21,0.35,6.1
"O=C(O)c1ccc(NC(=O)C(CC2CC2C(F)(F)F)c2ccc(-c3c(OC(F)F)ccc(Cl)c3F)c[n+]2[O-])cc1 (single isomer, unassigned) [Example 107, 2-(1-((4-carboxyphenyl)amino)-1-oxo-3-(2-(trifluoromethyl)cyclopropyl)propan-2-yl)-5-(3-chloro-6-(difluoromethoxy)-2-fluorophenyl)pyridine 1-oxide]",,,,3.2,1.74,24.2
"N#CC1(CC(C(=O)Nc2ccc(C(=O)O)cc2)c2ccc(-c3c(C(F)(F)F)ccc(Cl)c3F)c[n+]2[O-])CC1 (racemic) [Example 30, 2-(1-((4-carboxyphenyl)amino)-3-(1-cyanocyclopropyl)-1-oxopropan-2-yl)-5-(3-chloro-2-fluoro-6-(trifluoromethyl)phenyl)pyridine 1-oxide]",,,,7.6,5.27,155
"O=C(O)c1ccc(NC(=O)[C@H](CC2CC2)c2ccc(-c3c(C(F)F)ccc(Cl)c3F)c[n+]2[O-])cc1 (mixture of isomers) [Example 23, (S)- and (R)-2-(1-((4-carboxyphenyl)amino)-3-cyclopropyl-1-oxopropan-2-yl)-5-(3-chloro-6-(difluoromethyl)-2-fluorophenyl)pyridine 1-oxide]",1.9,2.9,89,0.9,,22
"O=C(O)c1ccc(NC(=O)C(CC2CC2)c2ccc(-c3cc(Cl)ccc3C(F)F)c[n+]2[O-])cc1 (single isomer, unassigned) [Example 29, (R)- or (S)-2-(1-((4-carboxyphenyl)amino)-3-cyclopropyl-1-oxopropan-2-yl)-5-(5-chloro-2-(difluoromethyl)phenyl)pyridine 1-oxide]",,,,4.3,2.07,84
"O=C(O)c1ccc(NC(=O)C(CC2CC2)c2ccc(-c3c(C(F)(F)F)ccc(Cl)c3F)c[n+]2[O-])cc1 (single isomer, unassigned) [Example 27, (R)- or (S)-2-(1-((4-carboxyphenyl)amino)-3-cyclopropyl-1-oxopropan-2-yl)-5-(3-chloro-2-fluoro-6-(trifluoromethyl)phenyl)pyridine 1-oxide]",,,,2.8,2.68,162
